Patent US10370436B2, “Anti-pseudomonas Psl binding molecules and uses thereof” (priority 2011, dated 2019)

Key:
[1] = test system: P. aeruginosa strain 6294; test: P. aeruginosa sepsis model; format: in vivo, C57Bl/6 mice
Protocol: C57Bl/6 mice (10 per group) were dosed with mAb or PMB-mAb conjugates i.p (10, 1 and 0.1 mg/kg) 6 h prior to i.p. challenge with LD80-100 dose of P. aeruginosa strain 6294 (4E7 CFU). Data from two studies was combined in this analysis. Survival was monitored over 72 h. Combined results of two studies are shown in FIGS. 21A-C: Most control mice dosed with A7 or buffer died by 24 h. […] Conversely, the conjugates were less protective than CAM-003 at the low dose of 0.1 mg/kg, and protective activity correlated with in vitro OPK activity of the conjugates (WT>SM>DM>TM).

[2] = test system: P. aeruginosa 6077 (O11-cytotoxic); test: P. aeruginosa corneal infection (keratitis) model; format: in vivo, mice; settings: versus negative control-treated animals, 24 hours after infection
Protocol: FIG. 8 (A-G): Anti-Psl monoclonal antibodies Cam-003 and WapR-004 are active in a P. aeruginosa keratitis model and thermal injury model. Mice were treated with a control IgG1 antibody or Cam-003 at 45 mg/kg (A, B) or 15 mg/kg (C, D) or PBS or a control IgG1 antibody or Cam-003 at 45 mg/kg or WapR-004 at 45 mg/kg or 15 mg/kg or 5 mg/kg (F, G) 24 hours prior to infection with 6077 (O11-cytotoxic—2×10^6 CFU). Immediately before infection, three 1 mm scratches were made on the left cornea of each animal followed by topical application of P. aeruginosa in a 5 μl inoculum. 24 hours after infection, the corneal pathology scores were calculated followed by removal of the eye for determination of viable CFU. Differences in pathology scores and viable CFU were determined by the Mann-Whitney U-test. (A) P=0.0001, (B) P<0.0001, (C) P=0.0003, (D) P=0.0015. (F) and (G) Cam-003 (45 mg/kg) vs. WapR-004 (45 mg/kg): P=0.018; Cam-003 (45 mg/kg) vs. WapR-004 (15 mg/kg): P=0.0025; WapR-004 (45 mg/kg) vs. WapR-004 (15 mg/kg): P=0.1331; WapR-004 (5 mg/kg) vs. Ctrl: P<0.0001. Results are representative of five independent experiments. (E) Survival analysis from Cam-003 and R347 treated CF-1 mice in a P. aeruginosa thermal injury model after 6077 infection (2×10^5 CFU) (log-rank: R347 vs. Cam-003 15 mg/kg, P=0.0094; R347 vs. Cam-003 5 mg/kg, P=0.0017). […]

[3] = test system: Psl on in vivo passaged P. aeruginosa strains; test: Flow cytometry of in vivo passaged P. aeruginosa; format: binding, Pseudomonas aeruginosa
Text: For IgG expression, the VH and VL chains of selected antibodies were cloned into human IgG1 expression vectors, co-expressed in HEK293 cells, and purified by protein A affinity chromatography as described (Persic, L., et al., Gene 187, 9-18 (1997)). Human IgG1 antibodies made with the variable regions from these selected serotype independent phage were confirmed for P. aeruginosa specificity and prioritized for subsequent analysis by whole cell binding to dominant clinically relevant serotypes by FACS analysis (FIG. 1F), since this method is more stringent than ELISA. For the flow cytometry based binding assays mid-log phase P. aeruginosa strains were concentrated in PBS to an OD650 of 2.0. After incubation of antibody (10 μg/mL) and bacteria (˜1×10^7 cells) for 1 hr at 4° C. with shaking, washed cells were incubated with an ALEXA FLUOR […] goat anti-human IgG antibody (Invitrogen, Carlsbad, Calif.) for 0.5 hr at 4° C. Washed cells were stained with BACLIGHT™ green bacterial stain as recommended (Invitrogen, Carlsbad, Calif.). Samples were run on a LSR II flow cytometer (BD Biosciences) and analyzed using BD FacsDiva (v. 6.1.3) and FlowJo (v. 9.2; TreeStar).
To test if Psl expression in vivo is maintained, mice were injected intraperitoneally with P. aeruginosa isolates followed by harvesting of bacteria by peritoneal lavage four hours post-infection. The presence of Psl was analyzed with a control antibody and Cam-003 by flow cytometry as conditions for antibody binding are more stringent and allow for quantification of cells that are positive or negative for Psl expression. For ex vivo binding, bacterial inocula (0.1 ml) was prepared from an overnight TSA plate and delivered intraperitoneally to BALB/c mice. At 4 hr. following challenge, bacteria were harvested, RBCs lysed, sonicated and resuspended in PBS supplemented with 0.1% Tween-20 and 1% BSA. Samples were stained and analyzed as previously described in Example 1. […] Within the inocula, Psl was not detected for strain 6077 and was minimally detected for strains PAO1 (O5) and 6206 (O11-cytotoxic).
The level of Psl expression/accessibility on the surface of P. aeruginosa strains PAO1 and 6206 in the acute pneumonia model was also assessed. Bacteria prepared from overnight-incubated, confluent plates, as described above, were intranasally administered to BALB/c mice. At 4 and 24 hours post-infection, bacteria were recovered from the lungs by bronchoalveolar lavage. Samples were stained and analyzed as previously described in Example 1.

In the case of “Cam-003: human IgG1 anti-Psl monoclonal antibody, VH SEQ ID NO: 1 and VL SEQ ID NO: 2”, the “dose relation of protective activity” value ([1]; 10, 1 and 0.1 mg/kg) is reported as “inversely correlated with dose”, the protection ([1]; 10, 1 and 0.1 mg/kg i.p. 6 h prior to i.p. challenge, survival over 72 h, FIGS. 21A-C) is reported as 50-90% and the “bacterial counts in total eye homogenates” value [2] is reported as “reduced bacterial counts”. For the same substance, the corneal pathology ([2]; FIGS. 8A-D, F-G) was “significantly less pathology”, the “staining of bacteria by flow cytometry” value ([3]; 6206, bronchoalveolar lavage 4 hours post-infection, FIG. 5D) was “minimal” and the “staining of bacteria by flow cytometry” value ([3]; PAO1, bronchoalveolar lavage 4 hours post-infection, FIG. 5D) was “Strong Cam-003 staining”. For the same substance, the “staining of bacteria by flow cytometry” value ([3]; PAO1 and 6206, bronchoalveolar lavage 24 hours post-infection, FIG. 5E) was “strong Cam-003 staining”, the “reactivity by flow cytometry after in vivo passage” value ([3]; PAO1ΔpslA) was “unable to react with Cam-003” and the “staining of bacteria by flow cytometry” value ([3]; three wild type strains harvested by peritoneal lavage 4 hr after intraperitoneal challenge, FIG. 5C) was “strong Cam-003 staining”.
